Reference: article PMC10341634, “Vasodilating Effects of Antispasmodic Agents and Their Cytotoxicity in Vascular Smooth Muscle Cells and Endothelial Cells—Potential Application in Microsurgery” (International Journal of Molecular Sciences, 2023)
Read-outs that look alike come from different tables or passages of the source.

What was measured:
[1] = tested on: rat smooth muscle cells (RSMCs); assay: cells
Procedure: Rat smooth muscle cells were cultured in DMED:F12 (Lonza, Besel, Switzerland) containing 10% fetal bovine serum, 1% penicillin/streptomycin solution (GA-1000; Lonza, Basel, Switzerland), and 1% stable glutamine (Wako, Tokyo, Japan) at 37 °C in a 5% CO2 incubator. The medium was changed every three days. Once the adherent cells reached 70–80% subconfluence, they were detached from the dish using Accutase (Nacalai Tesque, Kyoto, Japan). The cell suspension was diluted with DMED:F12 (+FBS) and adjusted to a concentration of 5 × 10^4 cells/mL, and then 100 μL of the suspension was seeded into each well of a 96-well dish (Nunc™ MicroWell™ 96-Well, Nunclon Delta-Treated, Flat-Bottom Microplate, Thermo Fisher, Waltham, MA, USA) and incubated for two days at 37 °C in a 5% CO2 incubator. Passage 6 smooth muscle cells were used, and five 96-well plates were prepared.
(§1) IC50 is the drug concentration at which half of the cells undergo cell death; it serves as an indicator of cellular toxicity. […] IC50 values were measured using the GloMax® Navigator System (Promega, Madison, WI, USA). The test compounds were diluted in the culture medium and stored in an incubator until use. […] For each test compound, a control and 11 different concentrations were prepared, and the cytotoxicity after the addition of the compounds was examined. The RealTime-GloTM MT Cell Viability Assay kit (Promega, cat#G9711, USA) was used, and the substrate and Nano-luc were added to the medium in each well of a 96-well plate seeded with RSMCs and HCAECs, with 50 μL per well. The plate was incubated for 1–3 h in the incubator. Then, 50 μL of each prepared test compound was added to the plate. The IC50 values were measured using GloMax at 1, 5, 10, 30, and 60 min after the addition of the test compounds, and cytotoxicity was evaluated.

[2] = tested on: human coronary artery endothelial cells (HCAECs); assay: cells
Procedure: Human coronary artery ECs were cultured in a collagen-coated dish (AGC TECHNO GLASS Co., Shizuoka, Japan) in EBM-2 (CC-3156, Lonza, Besel, Switzerland) containing Supplements and Growth Factors (CC-4176, Lonza, Besel, Switzerland). The cells were cultured at 37 °C in a 5% CO2 incubator. The medium was changed every three days until the adherent cell monolayer reached 70–80% subconfluence. Subsequently, cells were detached from the dish using Accutase. The cell suspension was diluted with medium, adjusted to a concentration of 5 × 10^4 cells/mL, and seeded into a 96-well plate. The dish was incubated for two days at 37 °C in a 5% CO2 incubator. En ECs at passages 5–6 were used, and five 96-well plates were prepared.
as §1

[3] = tested on: rat abdominal aorta; details: cited from earlier work
[4] = 1% lidocaine; cited from earlier work
[5] = cited from earlier work
[6] = tested on: NE-dependent contractions; details: cited from earlier work
[7] = 4% lidocaine administered locally; humans; cited from earlier work
[8] = tested on: rat abdominal aorta; assay: Wire myograph vasodilation of norepinephrine-contracted rat abdominal aorta rings; details: for concentration achieving maximal vasodilation effect (approximately 100% relaxation): 10 min after administration, contraction induced by 5 μM norepinephrine
Procedure: Consistent with our previous study, we applied a 1 gram-force (gf) load to approximately 1 mm cross-sectional slices of the rat abdominal aorta. Subsequently, we induced contraction by adding 5 μM norepinephrine. Various vasodilators were then added, and the concentration at which the vessels relaxed back to 1 gf was considered the concentration required for 100% relaxation.
A wire myograph system (Bio Research Co., Osaka, Japan) was used, as previously reported by Ogawa et al.. The rat abdominal aortae were cut into rings and manipulated using two L-shaped hooks. One hook was fixed, and the other was connected to an amplifier to measure the force exerted on the pulled vessel in grams. The rats were deeply anesthetized, and the abdominal aorta was dissected. The excised vessels were immersed in Ringer solution (NaCl 118 mM, KCl 4.7 mM, CaCl2/2H2O 2.5 mM, MgSO4/7H2O 1.2 mM, KH2PO4 1.2 mM, NaHCO3 25 mM, C6H12O6 11 mM, Na2EDTA 0.5 mM). The rat aorta was then sliced into approximately 1 mm-wide rings and hooked onto L-shaped hooks. The chamber was filled with 3 mL of Krebs-Ringer solution, and a gas mixture of 95% O2 and 5% CO2 was bubbled through. The chamber was maintained at 37 °C.
Once the wire myograph system was initiated, the wire was moved, and a load was exerted on the hook-attached chamber. The applied tensile force, amplified by a transducer and PowerLab (ADInstruments, Bella Vista, New South Wales, Australia), was continuously recorded as gram force using LabChart (ADInstruments, Bella Vista, New South Wales, Australia). The hook is pulled to apply a load of up to 1 gf. A resting period of approximately 10 min was required for the gradual relaxation of the vessel under tension from the hook. When relaxation reached a plateau, norepinephrine was added to the solution to achieve a final concentration of 5 μM. This causes the vessel to contract, increasing the load on the artery and surpassing 1 gf on the myograph recording. […] The reduction in load on the vessel in terms of gf was assessed to determine the relaxation rate and concentration (Figure 4). […]

[9] = parameters: method as in PMID 25357051; details: cited from earlier work
[10] = tested on: rat testicular vasculature; parameters: method as in doi:10.1007/BF00585581; details: local administration after epinephrine-induced vasoconstriction; cited from earlier work
[11] = Rattus norvegicus, 1 min, read-out: IC50 (cell viability), RSMCs, 1 min after addition
[12] = Rattus norvegicus, 5 min, read-out: IC50 (cell viability), RSMCs, 5 min after addition
[13] = Rattus norvegicus, 10 min, read-out: IC50 (cell viability), RSMCs, 10 min after addition
[14] = Rattus norvegicus, 0.5 h, read-out: IC50 (cell viability), RSMCs, 30 min after addition
[15] = Rattus norvegicus, 1 h, read-out: IC50 (cell viability), RSMCs, 60 min after addition
[16] = read-out: IC50 (cell viability), RSMCs, 1 min after addition
[17] = Homo sapiens, Endothelial cell, 1 min, read-out: IC50 (cell viability)
[18] = Homo sapiens, Endothelial cell, 5 min, read-out: IC50 (cell viability)
[19] = Homo sapiens, Endothelial cell, 10 min, read-out: IC50 (cell viability)
[20] = Homo sapiens, Endothelial cell, 0.5 h, read-out: IC50 (cell viability)
[21] = Homo sapiens, Endothelial cell, 1 h, read-out: IC50 (cell viability)

SMILES	IC50 [1, 11] [µM]	IC50 [1, 12] [µM]	IC50 [1, 13] [µM]	IC50 [1, 14] [µM]	IC50 [1, 15] [µM]	IC50 [1, 16] [µM]	IC50 [2, 17] [µM]	IC50 [2, 18] [µM]	IC50 [2, 19] [µM]	IC50 [2, 20] [µM]	IC50 [2, 21] [µM]	concentration achieving maximal vasodilation effect (approximately 100% relaxation) [8] [mM]	cellular toxicity [1]	cellular toxicity [2]	also measured
CCN(CC)CC(=O)Nc1c(C)cccc1C [Lidocaine, lidocaine]	55300	27900	16700	10100	7100	55300	24400	16800	13500	10300	7640				IC50 expressed as percent concentration ([1]; SMC, 1-min post-dose): 1.58%; IC50 ([1]; read-out: IC50 (cell viability), RSMCs, 5 min after addition): 27900 µM; IC50 ([1]; read-out: IC50 (cell viability), RSMCs, 10 min after addition): 16700 µM; IC50 expressed as percent concentration ([2]; EC, 1-min post-dose): 0.70%; relaxation ([3]; 1% lidocaine for 10 min): approximately 100%; concentration achieving maximal vasodilation effect (approximately 100% relaxation) ([3]; 10 min after administration, 5 μM norepinephrine, lidocaine data from previous research): 35 mM; osmotic pressure [4]: 282 mOsm/L; duration of antispasmodic effect [5]: 10 to 20 min; onset of antispasmodic effect [5]: 45 to 90 s; high concentrations relieving NE-dependent contractions and increasing blood flow [6]: 4.5 to 15 mM; low concentrations causing vasoconstriction [6]: 15 to 1500 µM; peak concentration measured in peripheral blood [7]: 1.5 µg/mL
O=[N+]([O-])OCC(CO[N+](=O)[O-])O[N+](=O)[O-] [Nitroglycerine, nitroglycerin]				130	109							0.022			relaxation ([8]; at the investigated concentrations, 10 min, 5 μM norepinephrine): approximately 50%; IC50 ([1]; read-out: IC50 (cell viability), RSMCs, 30 min after addition): 134 µM; IC50 ([2]; Homo sapiens, Endothelial cell, 10 min, read-out: IC50 (cell viability), HCAECs, 10 min after addition): 35 µM; IC50 ([2]; Homo sapiens, Endothelial cell, 0.5 h, read-out: IC50 (cell viability), HCAECs, 30 min after addition): 38 µM; IC50 ([2]; Homo sapiens, Endothelial cell, 1 h, read-out: IC50 (cell viability), HCAECs, 60 min after addition): 38.8 µM; IC50 ([2]; read-out: IC50 (cell viability), HCAECs, 10 min after addition): 35.1 µM
Cc1[nH]c(=O)c(C#N)cc1-c1ccc2nccn2c1 [Olprinone, olprinone]													No cellular toxicity was observed	No cellular toxicity was observed	
COc1ccc(Cc2nccc3cc(OC)c(OC)cc23)cc1OC [Papaverine, papaverine]	100	118	13.5	15.9	1.5	97	56	4.04	4.29	5	6.48	0.18			IC50 ([1]; read-out: IC50 (cell viability), RSMCs, 1 min after addition, listed as papaverine hydrochloride): 97 µM; IC50 ([1]; read-out: IC50 (cell viability), RSMCs, 60 min after addition): 1.46 µM; time until effects become evident ([5]; after local administration): 1 to 5 min; pH of clinically used concentrations [9]: 3–4.5
Cc1ccc(N(CC2=NCCN2)c2cccc(O)c2)cc1 [Phentolamine, phentolamine]													No cellular toxicity was observed	No cellular toxicity was observed	onset of the effect [10]: ≤ 2 min; sustained effect [10]: up to 20 min
